Here are results for five molecules from paper PMC8288134, “Synthesis, potential antitumor activity, cell cycle analysis, and multitarget mechanisms of novel hydrazones incorporating a 4-methylsulfonylbenzene scaffold: a molecular docking study” (Journal of Enzyme Inhibition and Medicinal Chemistry, 2021).

One data set concerns K-562. As to the kind of experiment: NCI antitumor screen (SRB). The settings on record: Homo sapiens. In kind it is cell-based.
For another data set, the system named is COLO 205. As to the kind of experiment: NCI antitumor screen (SRB). In kind it is cell-based. Conditions: Homo sapiens, one dose 10 µM, read-out: Growth inhibition percentage (GI%).
Data set [1] concerns HCT-15. The experiment in a line: NCI antitumor screen (SRB). In kind it is cell-based. Conditions: Homo sapiens, one dose 10 µM, read-out: Growth inhibition percentage (GI%).
Data set [2] has as its system HT29. As to the kind of experiment: NCI antitumor screen (SRB). Conditions: Homo sapiens, HT-29, one dose 10 µM, read-out: Growth inhibition percentage (GI%). The class given is cell-based.
For another data set, the system named is SNB-19. The experiment in a line: NCI antitumor screen (SRB). The class given is cell-based. The settings on record: Homo sapiens, one dose 10 µM, read-out: Growth inhibition percentage (GI%).
A further data set has as its system U251. The experiment in a line: NCI antitumor screen (SRB). In kind it is cell-based. Conditions: Homo sapiens, U-251, one dose 10 µM, read-out: Growth inhibition percentage (GI%).
Data set [3] has as its system SK-MEL-2. As to the kind of experiment: NCI antitumor screen (SRB). In kind it is cell-based. The settings on record: Homo sapiens.
The next data set relates to UACC-257. As to the kind of experiment: NCI antitumor screen (SRB). In kind it is cell-based, human. Conditions: Homo sapiens; UACC-257; one dose 10 µM; read-out: Growth inhibition percentage (GI%).
The subject of another data set is UACC-62. As to the kind of experiment: NCI antitumor screen (SRB). Conditions: Homo sapiens, one dose 10 µM, read-out: Growth inhibition percentage (GI%). In kind it is cell-based.
The subject of the next data set is SN12C. The experiment in a line: NCI antitumor screen (SRB). In kind it is cell-based. The settings on record: Homo sapiens, one dose 10 µM, read-out: Growth inhibition percentage (GI%).
For another data set, the system named is TK-10. As to the kind of experiment: NCI antitumor screen (SRB). Conditions: Homo sapiens, one dose 10 µM, read-out: Growth inhibition percentage (GI%). In kind it is cell-based.
In a further data set the test system is MDA-MB-231/ATCC. As to the kind of experiment: NCI antitumor screen (SRB). The settings on record: Homo sapiens, one dose 10 µM, read-out: Growth inhibition percentage (GI%). In kind it is cell-based.
Another data set concerns HS 578 T. As to the kind of experiment: NCI antitumor screen (SRB). Conditions: Homo sapiens, one dose 10 µM, read-out: Growth inhibition percentage (GI%). The class given is cell-based.
Data set [4] has as its system NSC lung cancer tumour cell lines. Conditions: cited from earlier work; for CC50: read-out: LC50 (subpanel average), reference drugs, ref https://dtp.cancer.gov/dtpstandard/dwindex/index.jsp; for TGI (subpanel average): reference drugs, ref https://dtp.cancer.gov/dtpstandard/dwindex/index.jsp.
The test system of data set [5] is ovarian cancer tumour cell lines. Conditions: cited from earlier work; for GI50: read-out: GI50 (subpanel average), reference drugs, ref https://dtp.cancer.gov/dtpstandard/dwindex/index.jsp; for CC50: read-out: LC50 (subpanel average), reference drugs, ref https://dtp.cancer.gov/dtpstandard/dwindex/index.jsp; for TGI (subpanel average): reference drugs, ref https://dtp.cancer.gov/dtpstandard/dwindex/index.jsp.

The next data set has as its system M14. The experiment in a line: NCI antitumor screen (SRB). In kind it is cell-based. The settings on record: Homo sapiens, one dose 10 µM, read-out: Growth inhibition percentage (GI%).
The subject of a further data set is OVCAR-8. As to the kind of experiment: NCI antitumor screen (SRB). The settings on record: Homo sapiens, one dose 10 µM, read-out: Growth inhibition percentage (GI%). In kind it is cell-based.
Another data set concerns MDA-MB-468. The experiment in a line: NCI antitumor screen (SRB). The settings on record: Homo sapiens, one dose 10 µM, read-out: Growth inhibition percentage (GI%). The class given is cell-based.
The next data set deals with EGFR (Homo sapiens, UniProt P00533). The experiment in a line: biochemical. The settings on record: read-out: IC50 EGFR Inhibition. From the text: (§1) In vitro luminescent EGFR tyrosine kinase assay using Kinase-Glo® MAX as a detection reagent, and In vitro HER2 tyrosine kinase assay using DP‐Glo™ reagent that measures ADP formed from a kinase reaction, this luminescent signal positively correlates with ADP amount and kinase activity. […]
EGFR, sequence (P00533 25-1210): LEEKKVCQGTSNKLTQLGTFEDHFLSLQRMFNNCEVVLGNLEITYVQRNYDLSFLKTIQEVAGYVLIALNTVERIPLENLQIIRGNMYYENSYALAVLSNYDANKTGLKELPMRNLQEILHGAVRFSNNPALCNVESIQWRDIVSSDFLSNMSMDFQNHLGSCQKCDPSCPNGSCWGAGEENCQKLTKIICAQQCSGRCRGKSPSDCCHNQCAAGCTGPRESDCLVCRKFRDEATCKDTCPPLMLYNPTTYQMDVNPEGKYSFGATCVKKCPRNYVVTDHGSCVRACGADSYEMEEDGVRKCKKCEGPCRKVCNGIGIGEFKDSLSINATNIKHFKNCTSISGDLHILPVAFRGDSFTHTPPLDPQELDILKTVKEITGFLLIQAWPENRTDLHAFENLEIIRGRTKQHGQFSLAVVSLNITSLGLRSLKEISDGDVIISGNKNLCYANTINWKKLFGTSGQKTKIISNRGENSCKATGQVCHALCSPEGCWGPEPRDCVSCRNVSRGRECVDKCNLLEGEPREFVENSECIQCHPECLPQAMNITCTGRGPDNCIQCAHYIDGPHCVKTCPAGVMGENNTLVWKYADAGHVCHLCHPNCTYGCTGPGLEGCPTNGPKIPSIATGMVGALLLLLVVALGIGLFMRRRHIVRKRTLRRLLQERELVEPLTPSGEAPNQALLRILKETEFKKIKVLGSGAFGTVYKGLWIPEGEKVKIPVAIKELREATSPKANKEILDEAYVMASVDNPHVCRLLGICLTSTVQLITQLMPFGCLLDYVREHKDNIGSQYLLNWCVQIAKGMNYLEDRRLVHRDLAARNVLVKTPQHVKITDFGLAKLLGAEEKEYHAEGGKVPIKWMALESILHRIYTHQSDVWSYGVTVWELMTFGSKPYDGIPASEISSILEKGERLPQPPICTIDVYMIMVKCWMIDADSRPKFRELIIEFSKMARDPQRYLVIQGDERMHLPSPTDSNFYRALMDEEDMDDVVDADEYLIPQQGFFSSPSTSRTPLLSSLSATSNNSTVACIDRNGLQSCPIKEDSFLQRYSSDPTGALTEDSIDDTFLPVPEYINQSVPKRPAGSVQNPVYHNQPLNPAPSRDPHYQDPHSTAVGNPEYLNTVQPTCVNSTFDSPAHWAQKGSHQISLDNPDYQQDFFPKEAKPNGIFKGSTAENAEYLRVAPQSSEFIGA
(§2) 2.1.5. EGFR and Her2 assays
(§3) In vitro luminescent EGFR tyrosine kinase assay, using Kinase-Glo® MAX as a detection reagent, and In vitro HER2 tyrosine kinase assay, using DP‐Glo™ reagent that measures the adenosine diphosphate (ADP) formed from a kinase reaction, were performed; this luminescent signal positively correlates with ADP amount and kinase activity. In 17 μl of distilled water, 6 μl of Kinase assay buffer and 1 μl ATP and 1 μl PTK substrate were mixed (master mixture). In every well, mix 20 μl of the master mixture and 5 μl of Inhibitor solution (Test Inhibitor) for positive control, and use 5 μl of the same solution without inhibitor (Inhibitor buffer) as the blank solution; add 20 μl of diluted EGFR or Her2 enzyme and incubate at 30°C for 40 min. Add 50 μl of Kinase-Glo Max reagent to each well, cover the plate with aluminum foil and incubate the plate at room temperature for 15 min. Afterward, measure luminescence using the microplate reader. “Blank” value is subtracted from all readings. […]

The target of another data set is HER2 (Homo sapiens, UniProt P04626). As to the kind of experiment: biochemical. The settings on record: read-out: IC50 HER2 Inhibition.
HER2, sequence (P04626 23-1255): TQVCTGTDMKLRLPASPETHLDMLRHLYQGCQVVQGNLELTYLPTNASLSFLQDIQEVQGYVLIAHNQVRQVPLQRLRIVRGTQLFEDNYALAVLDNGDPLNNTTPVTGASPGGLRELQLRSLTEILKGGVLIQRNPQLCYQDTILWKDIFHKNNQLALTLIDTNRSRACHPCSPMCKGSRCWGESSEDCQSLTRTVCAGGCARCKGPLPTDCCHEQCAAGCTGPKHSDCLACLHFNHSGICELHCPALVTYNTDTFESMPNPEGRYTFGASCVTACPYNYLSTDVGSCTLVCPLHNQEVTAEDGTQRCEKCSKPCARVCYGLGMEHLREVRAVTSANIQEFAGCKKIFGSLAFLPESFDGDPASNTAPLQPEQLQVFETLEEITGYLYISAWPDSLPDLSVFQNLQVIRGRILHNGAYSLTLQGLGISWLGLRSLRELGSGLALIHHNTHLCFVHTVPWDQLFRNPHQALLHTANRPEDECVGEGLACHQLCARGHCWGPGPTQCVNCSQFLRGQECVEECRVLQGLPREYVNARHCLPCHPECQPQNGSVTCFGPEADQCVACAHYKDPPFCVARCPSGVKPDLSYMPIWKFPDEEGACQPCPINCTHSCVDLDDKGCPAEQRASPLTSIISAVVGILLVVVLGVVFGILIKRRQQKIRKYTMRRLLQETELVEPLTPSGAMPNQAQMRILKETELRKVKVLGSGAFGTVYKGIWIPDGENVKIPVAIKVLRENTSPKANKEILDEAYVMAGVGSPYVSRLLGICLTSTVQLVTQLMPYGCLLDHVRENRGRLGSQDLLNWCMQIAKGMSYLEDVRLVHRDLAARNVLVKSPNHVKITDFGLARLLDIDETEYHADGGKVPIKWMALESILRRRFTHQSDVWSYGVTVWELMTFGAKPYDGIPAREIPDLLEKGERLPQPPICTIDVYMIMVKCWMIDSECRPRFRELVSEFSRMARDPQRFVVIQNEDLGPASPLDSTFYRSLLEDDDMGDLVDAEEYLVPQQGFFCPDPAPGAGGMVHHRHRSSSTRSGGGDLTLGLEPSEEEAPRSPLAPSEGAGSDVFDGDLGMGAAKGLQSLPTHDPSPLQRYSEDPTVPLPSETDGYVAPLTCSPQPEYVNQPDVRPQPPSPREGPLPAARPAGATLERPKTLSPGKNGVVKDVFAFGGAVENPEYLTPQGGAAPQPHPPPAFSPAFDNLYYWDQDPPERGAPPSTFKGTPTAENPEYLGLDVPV
Source text: as §1, §2, §3

Data set [6] deals with full panel of 59 cancer cell lines. As to the kind of experiment: NCI antitumor screen, full panel. Conditions: one dose 10 µM.
The next data set concerns EKVX. Further details: method as in https://dtp.cancer.gov/dtpstandard/dwindex/index.jsp. Conditions: reference drugs, ref https://dtp.cancer.gov/dtpstandard/dwindex/index.jsp; cited from earlier work.
For a further data set, the system named is NCI-H23. On the set-up: method as in https://dtp.cancer.gov/dtpstandard/dwindex/index.jsp. Conditions: reference drugs, ref https://dtp.cancer.gov/dtpstandard/dwindex/index.jsp; cited from earlier work.
The test system of a further data set is NCI-H322M. Further details: method as in https://dtp.cancer.gov/dtpstandard/dwindex/index.jsp. Conditions: reference drugs, ref https://dtp.cancer.gov/dtpstandard/dwindex/index.jsp; cited from earlier work.
Another data set concerns HCC-2998. On the set-up: method as in https://dtp.cancer.gov/dtpstandard/dwindex/index.jsp. The settings on record: reference drugs, ref https://dtp.cancer.gov/dtpstandard/dwindex/index.jsp; cited from earlier work.
In data set [7] the test system is HCT-15. Further details: method as in https://dtp.cancer.gov/dtpstandard/dwindex/index.jsp. The settings on record: reference drugs, ref https://dtp.cancer.gov/dtpstandard/dwindex/index.jsp; cited from earlier work.
Data set [8] has as its system HT29. On the set-up: method as in https://dtp.cancer.gov/dtpstandard/dwindex/index.jsp. The settings on record: reference drugs, ref https://dtp.cancer.gov/dtpstandard/dwindex/index.jsp; cited from earlier work.
The test system of another data set is SW-620. Further details: method as in https://dtp.cancer.gov/dtpstandard/dwindex/index.jsp. The settings on record: reference drugs, ref https://dtp.cancer.gov/dtpstandard/dwindex/index.jsp; cited from earlier work.
For data set [9], the system named is SK-MEL-2. Further details: method as in https://dtp.cancer.gov/dtpstandard/dwindex/index.jsp. The settings on record: reference drugs, ref https://dtp.cancer.gov/dtpstandard/dwindex/index.jsp; cited from earlier work.
The next data set has as its system OVCAR-4. On the set-up: method as in https://dtp.cancer.gov/dtpstandard/dwindex/index.jsp. Conditions: reference drugs, ref https://dtp.cancer.gov/dtpstandard/dwindex/index.jsp; cited from earlier work.
Another data set deals with SK-OV-3. On the set-up: method as in https://dtp.cancer.gov/dtpstandard/dwindex/index.jsp. Conditions: reference drugs, ref https://dtp.cancer.gov/dtpstandard/dwindex/index.jsp; cited from earlier work.
The test system of another data set is UO-31. Further details: method as in https://dtp.cancer.gov/dtpstandard/dwindex/index.jsp. The settings on record: reference drugs, ref https://dtp.cancer.gov/dtpstandard/dwindex/index.jsp; cited from earlier work.
The mark [10] stands for this setting: K562, read-out: Growth inhibition percentage (GI%).
Where [11] appears, read: SK-MEL-2, read-out: Growth inhibition percentage (GI%).

Read-outs that look alike come from different tables or passages of the source. Some results are limits rather than exact numbers.

In the case of `O=c1[nH]cc(F)c(=O)[nH]1` [Compound 5-Fu, 5-fluorouracil, reference compound], the inhibition at 10 µM came out at 57.7% in the data set on K-562 (K562, K-562, one dose 10 µM, read-out: Growth inhibition percentage (GI%)); 59.8% with COLO 205; 73.5% with HCT-15 [1]; 72.9% with HT29 [2]; 34.1% in the data set with SNB-19; 49.7% with U251. In addition, the inhibition at 10 µM in the data set with SK-MEL-2 [3] (SK-MEL-2, one dose 10 µM, read-out: Growth inhibition percentage (GI%)) is < 10%; in the data set on UACC-257, 80.5%; with UACC-62, 60.3%; in the data set on SN12C, 46%; with TK-10, 33.1%; in the data set on MDA-MB-231/ATCC, 21.9%. Besides, the inhibition at 10 µM in the data set with HS 578 T was > 100%. Moreover, the GI50 was 13.6 µM in data set [4] (read-out: GI50 (subpanel average), reference drugs, ref https://dtp.cancer.gov/dtpstandard/dwindex/index.jsp) and 5.17 µM in data set [5]. For the same molecule, the CC50 is > 100 µM in data set [4] and 92.9 µM in data set [5]. The “TGI (subpanel average)” value is listed as 80.45 µM in [4] and 38.36 µM in [5].
On to `CS(=O)(=O)c1ccc(C(=O)NN=Cc2cccc3ccccc23)cc1` [Compound 6, 4-(Methylsulfonyl)-N'-(naphthalen-1-ylmethylene)benzohydrazide], for which the inhibition at 10 µM was 72.2% in the data set with K-562 (setting [10]); 14.3% in the data set on COLO 205; 50.2% in the data set with HCT-15 [1]; 50.5% with HT29 [2]; 20.2% in the data set with SNB-19; 23.7% with U251. The inhibition at 10 µM in the data set with M14 came out at 33.2%; in the data set on SK-MEL-2 [3] (setting [11]), 52.3%; with UACC-257 it was 58.9%; in the data set on UACC-62, 38.4%; in the data set on OVCAR-8, 16.2%; in the data set with SN12C it was 12.6%. Moreover, the inhibition at 10 µM in the data set with TK-10 was 14.9%; with MDA-MB-231/ATCC, < 10%; in the data set on HS 578 T, 14.9%; in the data set with MDA-MB-468, 25.8%. The IC50 was determined as 0.26 ± 0.09 µM at EGFR and 0.35 ± 0.01 µM at HER2. In data set [6], the “PCE: positive cytotoxic effect (number of cell lines with GI 10 to 100% / total number of cell lines)” value is on record as 52/59.
On to `Cc1ccc(C=NNC(=O)c2ccc(S(C)(=O)=O)cc2)cc1` [Compound 9, N'-(4-Methylbenzylidene)-4-(methylsulfonyl)benzohydrazide], for which the inhibition at 10 µM in the data set with K-562 (setting [10]) is 44.1%; in the data set with COLO 205 it was < 10%; in the data set with HCT-15 [1] it was 16.3%; in the data set with HT29 [2], 17.7%; in the data set with SNB-19 it was < 10%; with U251, 13.7%. For the same molecule, the inhibition at 10 µM in the data set on M14 was < 10%; in the data set with SK-MEL-2 [3] (setting [11]), 19.8%; with UACC-257 it was 28.4%; in the data set with UACC-62, 19.1%; in the data set with OVCAR-8, < 10%; in the data set on SN12C, < 10%. For the same molecule, the inhibition at 10 µM was < 10% in the data set with TK-10, < 10% in the data set on MDA-MB-231/ATCC, < 10% in the data set on HS 578 T and 21.5% in the data set on MDA-MB-468. Also, the IC50 on EGFR stood at 0.77 ± 0.03 µM; on HER2 it was 0.41 ± 0.01 µM. The “PCE: positive cytotoxic effect (number of cell lines with GI 10 to 100% / total number of cell lines)” value in [6] is listed as 27/59.
Consider `CS(=O)(=O)c1ccc(C(=O)N/N=C/c2ccccc2O)cc1` [Compound 16], for which the inhibition at 10 µM in the data set on K-562 (setting [10]) turned out to be 59.5%; with COLO 205, 68.8%; in the data set with HCT-15 [1], 82%; with HT29 [2], 56.4%; in the data set with SNB-19, 54.6%; in the data set on U251, 72.2%. For the same molecule, the inhibition at 10 µM was 67.5% in the data set on M14; 60% in the data set with SK-MEL-2 [3] (setting [11]); 77.4% in the data set with UACC-257; 83.6% with UACC-62; 72.1% with OVCAR-8; 41.4% in the data set on SN12C. Further, the inhibition at 10 µM in the data set on TK-10 turned out to be 54.2%; in the data set with MDA-MB-231/ATCC it was 52.6%; in the data set with HS 578 T it was 18.5%; with MDA-MB-468, 35.3%. Further, the values for the IC50 at EGFR and at HER2 were 0.2 ± 0.07 µM and 0.13 ± 0.04 µM, respectively. Moreover, the “PCE: positive cytotoxic effect (number of cell lines with GI 10 to 100% / total number of cell lines)” value in data set [6] is listed as 59/59.
On to `CNC(=O)c1cc(Oc2ccc(NC(=O)Nc3ccc(Cl)c(C(F)(F)F)c3)cc2)ccn1` [Sorafenib, sorafenib], for which the GI50 in the data set with EKVX is 2.51 µM; in the data set on NCI-H23, 1.99 µM; in the data set with NCI-H322M, 2.51 µM; with HCC-2998, 3.16 µM; in the data set on HCT-15 [7] it was 2.51 µM; with HT29 [8] it was 1.99 µM. Further, the GI50 in the data set with SW-620 was 2.51 µM; in the data set on SK-MEL-2 [9], 1.99 µM; in the data set on OVCAR-4, 3.16 µM; with SK-OV-3, 2.51 µM; in the data set with UO-31 it was 2.51 µM; in [5], 2.89 µM. The CC50 was 49.1 µM in [4] and 71.3 µM in data set [5]. Moreover, the entries for the “TGI (subpanel average)” value in [4] and in data set [5] were 7.99 µM and 14.43 µM, respectively.
